# Read-outs that look alike come from different tables or passages of the source.
# How the values were obtained:
# [1] = test system: luminal, basal, claudin-low and ERBB2AMP breast cancer cell lines; assay: Associations of clinically relevant subtypes and response (non-parametric ANOVA or t-test on GI50 ranks); type: cell-based, human
# Procedure, shortened: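 Significance was set at FDR p<0.20 after combining p-values across three test sets. Subtype–response associations came from rank-based non-parametric ANOVA or t-tests on GI50. For three-class comparisons, post-hoc tests of each group against the rest identified the most sensitive group, with FDR correction.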
# [2] = test system: panel of 55 breast cancer cell lines; assay: Cell growth inhibition assay (Cell Titer Glo, 72 h, 9 doses; GI50, TGI, LC50); type: cell-based, human; conditions: Homo sapiens, read-out: GI50 (converted)
compound,measurement,setting,value
COc1cc([C@@H]2c3cc4c(cc3[C@@H](O[C@@H]3O[C@@H]5CO[C@@H](C)O[C@H]5[C@H](O)[C@H]3O)[C@H]3COC(=O)[C@H]23)OCO4)cc(OC)c1O [Etoposide],subtype-specific response (sensitivity by transcriptional subtype),[1]; GI50 across subtypes,preferential activity in basal and/or claudin-low cell lines
same,Subtype specificity,"[1]; Table 6, most sensitive subtype, FDR p<0.20",Claudin-low
same,GI50,"[2]; 600MPE cell line, censored GI50 values",9.77 µM
same,GI50,"[2]; AU565, AU565 cell line, censored GI50 values",0.676 µM
same,GI50,"[2]; AU565, cell line AU565",0.676 µM
same,GI50,"[2]; BT-20, BT20 cell line, censored GI50 values",3.31 µM
same,GI50,"[2]; BT-20, cell line BT20",3.31 µM
same,GI50,"[2]; BT-474, BT474 cell line, censored GI50 values",19.1 µM
same,GI50,"[2]; BT-474, cell line BT474",19.1 µM
same,GI50,"[2]; BT-483, BT483 cell line, censored GI50 values",4.27 µM
same,GI50,"[2]; BT-483, cell line BT483",4.27 µM
same,GI50,"[2]; BT-549, BT549 cell line, censored GI50 values",1.38 µM
same,GI50,"[2]; BT-549, cell line BT549",1.38 µM
same,GI50,"[2]; CAMA-1, CAMA1 cell line, censored GI50 values",5.01 µM
same,GI50,"[2]; CAMA-1, cell line CAMA1",5.01 µM
same,GI50,"[2]; HCC38, HCC38 cell line, censored GI50 values",0.295 µM
same,GI50,"[2]; HCC38, cell line HCC38",0.295 µM
same,GI50,"[2]; HCC70, HCC70 cell line, censored GI50 values",12.9 µM
same,GI50,"[2]; HCC70, cell line HCC70",12.9 µM
same,GI50,"[2]; HCC202, HCC202 cell line, censored GI50 values",0.933 µM
same,GI50,"[2]; HCC202, cell line HCC202",0.933 µM
same,GI50,"[2]; HCC1143, HCC1143 cell line, censored GI50 values",5.13 µM
same,GI50,"[2]; HCC1143, cell line HCC1143",5.13 µM
same,GI50,"[2]; HCC1187, HCC1187 cell line, censored GI50 values",0.692 µM
same,GI50,"[2]; HCC1187, cell line HCC1187",0.692 µM
same,GI50,"[2]; HCC1395, HCC1395 cell line, censored GI50 values",3.09 µM
same,GI50,"[2]; HCC1395, cell line HCC1395",3.09 µM
same,GI50,"[2]; HCC1419, HCC1419 cell line, censored GI50 values",70.8 µM
same,GI50,"[2]; HCC1419, cell line HCC1419",70.8 µM
same,GI50,"[2]; HCC1428, HCC1428 cell line, censored GI50 values",34.7 µM
same,GI50,"[2]; HCC1428, cell line HCC1428",34.7 µM
same,GI50,"[2]; HCC1500, HCC1500 cell line, censored GI50 values",1.41 µM
same,GI50,"[2]; HCC1500, cell line HCC1500",1.41 µM
same,GI50,"[2]; HCC1806, HCC1806 cell line, censored GI50 values",3.09 µM
same,GI50,"[2]; HCC1806, cell line HCC1806",3.09 µM
same,GI50,"[2]; HCC1937, HCC1937 cell line, censored GI50 values",4.57 µM
same,GI50,"[2]; HCC1937, cell line HCC1937",4.57 µM
same,GI50,"[2]; HCC1954, HCC1954 cell line, censored GI50 values",1 µM
same,GI50,"[2]; HCC1954, cell line HCC1954",1 µM
same,GI50,"[2]; HCC2185 cell line, censored GI50 values",7.76 µM
same,GI50,"[2]; HCC3153 cell line, censored GI50 values",2.95 µM
same,GI50,"[2]; MCF7, MCF7 cell line, censored GI50 values",11.2 µM
same,GI50,"[2]; MCF7, cell line MCF7",11.2 µM
same,GI50,"[2]; MDA-MB-134-VI, MDAMB134VI cell line, censored GI50 values",2.45 µM
same,GI50,"[2]; MDA-MB-157, MDAMB157 cell line, censored GI50 values",0.955 µM
same,GI50,"[2]; MDA-MB-157, cell line MDAMB157",0.955 µM
same,GI50,"[2]; MDA-MB-175-VII, MDAMB175VII cell line, censored GI50 values",72.4 µM
same,GI50,"[2]; MDA-MB-231, MDAMB231 cell line, censored GI50 values",2.04 µM
same,GI50,"[2]; MDA-MB-231, cell line MDAMB231",2.04 µM
same,GI50,"[2]; MDA-MB-361, MDAMB361 cell line, censored GI50 values",14.1 µM
same,GI50,"[2]; MDA-MB-361, cell line MDAMB361",14.1 µM
same,GI50,"[2]; MDA-MB-415, MDAMB415 cell line, censored GI50 values",13.8 µM
same,GI50,"[2]; MDA-MB-415, cell line MDAMB415",13.8 µM
same,GI50,"[2]; MDA-MB-436, MDAMB436 cell line, censored GI50 values",1 µM
same,GI50,"[2]; MDA-MB-436, cell line MDAMB436",1 µM
same,GI50,"[2]; MDA-MB-453, MDAMB453 cell line, censored GI50 values",5.01 µM
same,GI50,"[2]; MDA-MB-453, cell line MDAMB453",5.01 µM
same,GI50,"[2]; MDA-MB-468, MDAMB468 cell line, censored GI50 values",2.57 µM
same,GI50,"[2]; MDA-MB-468, cell line MDAMB468",2.57 µM
same,GI50,"[2]; SK-BR-3, SKBR3 cell line, censored GI50 values",1.2 µM
same,GI50,"[2]; SK-BR-3, cell line SKBR3",1.2 µM
same,GI50,"[2]; SUM52PE, SUM52PE cell line, censored GI50 values",2.57 µM
same,GI50,"[2]; SUM52PE, cell line SUM52PE",2.57 µM
same,GI50,"[2]; SUM149PT, SUM149PT cell line, censored GI50 values",2.63 µM
same,GI50,"[2]; SUM149PT, cell line SUM149PT",2.63 µM
same,GI50,"[2]; SUM185PE, SUM185PE cell line, censored GI50 values",4.9 µM
same,GI50,"[2]; SUM185PE, cell line SUM185PE",4.9 µM
same,GI50,"[2]; SUM225CWN, SUM225CWN cell line, censored GI50 values",10.2 µM
same,GI50,"[2]; SUM225CWN, cell line SUM225CWN",10.2 µM
same,GI50,"[2]; SUM1315MO2, SUM1315MO2 cell line, censored GI50 values",0.288 µM
same,GI50,"[2]; SUM-159-PT, SUM159PT cell line, censored GI50 values",0.776 µM
same,GI50,"[2]; SUM-159-PT, cell line SUM159PT",0.776 µM
same,GI50,"[2]; T47D, T47D cell line, censored GI50 values",1.07 µM
same,GI50,"[2]; T47D, cell line T47D",1.07 µM
same,GI50,"[2]; UACC-893, UACC893 cell line, censored GI50 values",55 µM
same,GI50,"[2]; UACC-893, cell line UACC893",55 µM
same,GI50,"[2]; ZR-75-1, ZR751 cell line, censored GI50 values",2.09 µM
same,GI50,"[2]; ZR-75-1, cell line ZR751",2.09 µM
same,GI50,"[2]; ZR-75B, ZR75B cell line, censored GI50 values",0.871 µM
same,GI50,"[2]; ZR-75B, cell line ZR75B",0.871 µM
same,GI50,[2]; cell line 600MPE,9.77 µM
same,GI50,[2]; cell line HCC2185,7.76 µM
same,GI50,[2]; cell line HCC3153,2.95 µM
same,GI50,[2]; cell line MDAMB134V,2.45 µM
same,GI50,[2]; cell line MDAMB175V,72.4 µM
same,GI50,[2]; cell line SUM1315MO,0.288 µM
